According to patent publication US8329686B2, “Isatin analogues and uses therefor” (Washington University, priority 2006, dated 2012):

Tests used:
Assay type in all cases: biochemical
caspase-3 [1] = biological target: T1, caspase-3 (Homo sapiens, UniProt P42574); test: Enzyme inhibition assay, caspase 3 (fluorogenic Ac-DEVD-AMC); conditions: read-out: IC50 for caspase-3
T1 construct: purchased Sigma-Aldrich (St. Louis, Mo.)
T1 sequence (P42574 29-175 limits assumed): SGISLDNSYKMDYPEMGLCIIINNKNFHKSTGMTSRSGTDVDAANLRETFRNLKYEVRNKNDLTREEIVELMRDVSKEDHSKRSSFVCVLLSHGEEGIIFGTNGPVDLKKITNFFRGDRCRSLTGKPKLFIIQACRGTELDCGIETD
T1 sequence (P42574 176-277 limits assumed): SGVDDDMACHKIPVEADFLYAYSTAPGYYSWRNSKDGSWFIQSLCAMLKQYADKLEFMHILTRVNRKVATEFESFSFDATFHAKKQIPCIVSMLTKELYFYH
Procedure: (§1) Enzyme Assays. Inhibition of recombinant human caspase-3 and other caspases by the isatin analogues was assessed using a fluorometric assay by measuring the accumulation of a fluorogenic product, 7-amino-4-methylcoumarin (7-AMC).
(§2) Enzyme Inhibition Assays. Recombinant human caspases (3, 6, 7, and 8) and their peptide-specific substrates (Ac-DEVDAMC, Ac-VEID-AMC, Ac-DEVD-AMC, and Ac-IETD-AMC, respectively) were purchased from Sigma-Aldrich (St. Louis, Mo.) with the exception of caspase 1 and its substrate (Ac-YVAD-AMC), which were obtained from BIOMOL Research Laboratories (Plymouth Meeting, Pa.). The enzymatic activity of caspases was determined by measuring the accumulation of the fluorogenic product 7-amino-4-methylcoumarin (AMC). All assays were prepared in 96-well format at a volume of 210 μL per well and consisted of 100 mM Na+ HEPES (pH 7.4), 10% sucrose, 100 mM NaCl, 0.1% CHAPS, 5 mM 2-mercaptoethanol, 2 mM EDTA, 10 μM Ac-YVAD-AMC (caspase 1); 20 mMNa^+ HEPES (pH 7.4), 10% sucrose, 100 mMNaCl, 0.1% CHAPS, 2 mM EDTA, 10 μM Ac-DEVD-AMC (caspase 3); 20 mM Na^+ HEPES (pH 7.4), 10% sucrose, 100 mM NaCl, 0.1% CHAPS, 2 mM EDTA, 10 μM Ac-VEID-AMC (caspase 6); 20 mM Na+ HEPES (pH 7.4), 100 mM NaCl, 10% sucrose, 0.1% CHAPS, 5 mM 2-mercaptoethanol, 2 mM EDTA, 10 μM Ac-DEVD-AMC (caspase 7); 20 mM Na+ HEPES (pH 7.4), 10% sucrose, 100 mM NaCl, 0.1% CHAPS, 2 mM EDTA, 10 μM Ac-IETD-AMC (caspase 8).
(§3) Recombinant caspases were first assayed to determine the optimal concentration for each experiment. Optimal concentrations were based in the linear range of the enzyme activation curves. Peptide inhibitors with known IC50 values were tested together with the compounds as a control for each caspase assay. […] Peptide and nonpeptide inhibitors were dissolved in DMSO, and a 2 serial dilution was performed prior to screening in order to obtain desired concentrations. 10 μL was added to each well containing 100 μL caspase solution and allowed to incubate on ice for 30 min. […] The final concentration of DMSO in all wells was 5% of the total volume. In caspase-1 and caspase-7 assays, 10 mM 2-mercaptoethanol was added to the substrate solution for full activation of the enzymes.
(§4) Compounds were tested in duplicate, and IC50 curves were calculated for all inhibitors assayed. Final IC50s were the average of three independent experiments.

caspase-3 [2] = biological target: T1, caspase-3; test: Enzyme kinetic studies versus Ac-DEVD-AMC
Procedure: Enzyme Kinetic Studies. The inhibition profile for compound 21c was determined for caspase-3 in the assay buffer. The concentration of Ac-DEVD-AMC was varied from 6.25 to 100 μM, and the concentration of 21c was varied from 0 to 20 nM. The kinetic parameters of 21c were obtained by fitting initial-rate data to
[formula] where v is the observed velocity, S is the substrate concentration, Vm is the velocity at saturating substrate, Km is the Michaelis constant of the substrate, I is the inhibitor concentration, and Ki is the dissociation constant of the inhibitor from the E·I complex. The data were analyzed using GraFit 4.0 (Erithacus Software, Staines, U.K.)
Kinetic studies were also conducted in order to determine the mechanism of inhibition of caspase-3 activity by compound 21c.

caspase 1 = biological target: T2, caspase 1 (Homo sapiens, UniProt P29466); test: Enzyme inhibition assay, caspase 1 (fluorogenic Ac-YVAD-AMC); conditions: Table 6; read-out: IC50 (nM) caspase-1
T2 construct: purchased BIOMOL Research Laboratories (Plymouth Meeting, Pa.)
T2 sequence (P29466 120-297 limits assumed): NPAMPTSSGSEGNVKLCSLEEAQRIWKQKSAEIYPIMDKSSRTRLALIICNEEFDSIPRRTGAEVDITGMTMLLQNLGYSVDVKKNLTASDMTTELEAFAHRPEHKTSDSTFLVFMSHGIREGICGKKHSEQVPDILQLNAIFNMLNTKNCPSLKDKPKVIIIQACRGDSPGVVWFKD
T2 sequence (P29466 317-404 limits assumed): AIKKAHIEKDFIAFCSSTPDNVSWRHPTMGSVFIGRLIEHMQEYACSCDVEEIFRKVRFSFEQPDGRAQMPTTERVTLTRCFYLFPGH

caspase 8 = biological target: T3, caspase 8 (Homo sapiens, UniProt Q14790); test: Enzyme inhibition assay, caspase 8 (fluorogenic Ac-IETD-AMC); conditions: Table 6; read-out: IC50 (nM) caspase-8
T3 construct: purchased Sigma-Aldrich (St. Louis, Mo.)
T3 sequence (Q14790 217-374 limits assumed): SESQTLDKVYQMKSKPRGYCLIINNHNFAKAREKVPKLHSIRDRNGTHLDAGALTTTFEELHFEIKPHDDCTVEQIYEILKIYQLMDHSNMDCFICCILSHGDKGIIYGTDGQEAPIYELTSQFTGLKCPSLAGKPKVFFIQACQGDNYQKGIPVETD
T3 sequence (Q14790 385-479 limits assumed): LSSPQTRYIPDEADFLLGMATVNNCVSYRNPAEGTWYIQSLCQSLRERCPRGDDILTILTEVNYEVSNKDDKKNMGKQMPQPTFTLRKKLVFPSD

caspase 6 = biological target: T4, caspase 6 (Homo sapiens, UniProt P55212); test: Enzyme inhibition assay, caspase 6 (fluorogenic Ac-VEID-AMC); conditions: Table 6; read-out: IC50 (nM) caspase-6
T4 construct: purchased Sigma-Aldrich (St. Louis, Mo.)
T4 sequence (P55212 24-179 limits assumed): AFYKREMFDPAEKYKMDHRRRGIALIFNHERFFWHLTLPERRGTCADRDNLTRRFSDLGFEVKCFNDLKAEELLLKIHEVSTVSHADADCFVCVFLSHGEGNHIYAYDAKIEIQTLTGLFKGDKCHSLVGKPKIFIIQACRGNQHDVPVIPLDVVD
T4 sequence (P55212 194-293 limits assumed): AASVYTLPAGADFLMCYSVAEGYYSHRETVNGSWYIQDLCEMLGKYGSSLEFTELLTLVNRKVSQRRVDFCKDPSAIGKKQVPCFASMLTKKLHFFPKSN

caspase 7 = biological target: T5, caspase 7 (Homo sapiens, UniProt P55210); test: Enzyme inhibition assay, caspase 7 (fluorogenic Ac-DEVD-AMC); conditions: Table 6; read-out: IC50 (nM) caspase-7
T5 construct: purchased Sigma-Aldrich (St. Louis, Mo.)
T5 sequence (P55210 24-198 limits assumed): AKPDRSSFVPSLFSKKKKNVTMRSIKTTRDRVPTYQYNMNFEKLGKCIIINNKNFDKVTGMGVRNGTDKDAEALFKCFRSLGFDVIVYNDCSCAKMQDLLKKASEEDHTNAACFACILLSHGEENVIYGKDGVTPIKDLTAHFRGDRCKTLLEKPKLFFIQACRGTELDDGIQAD
T5 sequence (P55210 207-303 limits assumed): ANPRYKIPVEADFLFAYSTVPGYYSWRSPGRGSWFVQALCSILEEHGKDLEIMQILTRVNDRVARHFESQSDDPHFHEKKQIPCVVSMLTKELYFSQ
Procedure: as §1, §2, §3, §4

SMILES: COc1ccc(CN2C(=O)C(=O)c3cc(S(=O)(=O)N4CCCC4COc4cccnc4)ccc32)cc1 (stereo not shown) [Compound 21c, 1-(4-Methoxybenzyl)-5-(2-(pyridin-3-yl-oxymethyl)-pyrrolidine-1-sulfonyl)-1H-indole-2,3-dione]
- IC50 (caspase-3 [1]): 3.9 nM
- Ki (caspase-3 [2]; competitive versus Ac-DEVD-AMC, read-out: calculated Ki value): 4.4 nM
- mechanism of inhibition of caspase-3 activity (caspase-3 [2]; versus Ac-DEVD-AMC): competitive inhibition
- IC50 (caspase 1): > 10000 nM
- IC50 (caspase 8): > 50000 nM
- IC50 (caspase 6): > 5000 nM
- IC50 (caspase 7): 15.1 ± 1.2 nM
